Here are results for 15 compounds from ChEMBL document CHEMBL1255238, “Induction of erm(C) expression by noninducing antibiotics” (2008).

In brackets after ≈: the same amount, converted by molar mass. Activity calls are given as the source filed them. No cut-off for these calls is given here.

Test [1] deals with Escherichia coli. Put plainly: Induction of erm(C) expression in Escherichia coli JM109 harboring Staphylococcus aureus erm(C)-containing pERMZalpha reporter plasmid at 10 mg/ml after 36 hrs at 37 degC by disc-based beta-galactosidase reporter gene assay. The format is functional, organism-based.
In test [2] the test system is Escherichia coli. As to the kind of experiment: Induction of erm(C) expression in Escherichia coli JM109 harboring Staphylococcus aureus erm(C)-containing pERMZ7 lacking codons 2 to 4 with additional mutations leader peptide cistrons reporter plasmid at 25 mg/ml after 36 hrs at 37 degC by disc-based beta-galactosidase reporter gene assay. The format is functional, organism-based.

Test [3] relates to Escherichia coli. Put plainly: Induction of erm(C) expression in Escherichia coli JM109 harboring Staphylococcus aureus erm(C)-containing pERMZalpha reporter plasmid after 36 hrs at 37 degC by disc-based beta-galactosidase reporter gene assay. The format is functional, organism-based.
For test [4], the system named is Escherichia coli. Put plainly: Induction of erm(C) expression in Escherichia coli JM109 harboring Staphylococcus aureus erm(C)-containing pERMZdelta2-4 mutant leader peptide cistrons reporter plasmid at 25 mg/ml after 36 hrs at 37 degC by disc-based beta-galactosidase reporter gene assay. The format is functional, organism-based.
For test [5], the system named is Escherichia coli. As to the kind of experiment: Induction of erm(C) expression in Escherichia coli JM109 harboring Staphylococcus aureus erm(C)-containing pERMZalpha reporter plasmid at 1.5 mg/ml after 36 hrs at 37 degC by disc-based beta-galactosidase reporter gene assay. The format is functional, organism-based. (In general: A reporter such as luciferase makes a cellular process visible.)

Test [6] has as its system Escherichia coli. Put plainly: Induction of erm(C) expression in Escherichia coli JM109 harboring Staphylococcus aureus erm(C)-containing pERMZalpha reporter plasmid after 36 hrs at 25 mg/ml 37 degC by disc-based beta-galactosidase reporter gene assay. The format is functional, organism-based.
Test [7] concerns Escherichia coli. Put plainly: Induction of erm(C) expression in Escherichia coli ZK796 harboring Staphylococcus aureus erm(C)-containing pERMCT plasmid assessed as increase in A2058 dimethylation in 23S rRNA at 25% MIC after 4 hrs by primer extension assay. The format is functional, organism-based.
Test [8] relates to Escherichia coli. As to the kind of experiment: Induction of erm(C) expression in Escherichia coli JM109 harboring Staphylococcus aureus erm(C)-containing pERMZalpha reporter plasmid at 8 mg/ml after 36 hrs at 37 degC by disc-based beta-galactosidase reporter gene assay. The format is functional, organism-based.
The subject of test [9] is Escherichia coli. As to the kind of experiment: Antimicrobial activity against Escherichia coli ZK796 harboring empty plasmid. The format is functional.
Test [10] relates to Escherichia coli. Put plainly: Antimicrobial activity against Escherichia coli ZK796 harboring Staphylococcus aureus erm(C)-containing pERMCT plasmid. The format is functional.
Test [11] has as its system Escherichia coli. As to the kind of experiment: Induction of erm(C) expression in Escherichia coli JM109 harboring Staphylococcus aureus erm(C)-containing pERMZalpha reporter plasmid at 4.5 mg/ml after 36 hrs at 37 degC by disc-based beta-galactosidase reporter gene assay. The format is functional, organism-based.
Test [12] concerns Escherichia coli. Put plainly: Induction of erm(C) expression in Escherichia coli ZK796 harboring Staphylococcus aureus erm(C)-containing pERMCT plasmid assessed as increase in A2058 dimethylation in 23S rRNA at 0.8 ug/ml after 30 mins by primer extension assay. The format is functional, organism-based.
The subject of test [13] is Escherichia coli. Put plainly: Induction of erm(C) expression in Escherichia coli ZK796 harboring Staphylococcus aureus erm(C)-containing pERMCT plasmid assessed as increase in A2058 dimethylation in 23S rRNA at 0.4 ug/ml after 4 hrs by primer extension assay. The format is functional, organism-based.
The subject of test [14] is Escherichia coli. As to the kind of experiment: Induction of erm(C) expression in Escherichia coli ZK796 harboring Staphylococcus aureus erm(C)-containing pERMCT plasmid assessed as increase in A2058 dimethylation in 23S rRNA at 0.4 ug/ml at 2 hrs by primer extension assay. The format is functional, organism-based.

`CC[C@H]1OC(=O)C[C@@H](O)[C@H](C)[C@@H](O[C@@H]2O[C@H](C)[C@@H](O[C@H]3C[C@@](C)(O)[C@@H](O)[C@H](C)O3)[C@H](N(C)C)[C@H]2O)[C@@H](CC=O)C[C@@H](C)C(=O)/C=C/C(C)=C/[C@@H]1CO[C@@H]1O[C@H](C)[C@@H](O)[C@@H](OC)[C@H]1OC`: the outcome in test [1] was inactive.

For the compound `CC[C@H]1OC(=O)[C@@](C)(F)C(=O)[C@H](C)[C@@H](O[C@@H]2O[C@H](C)C[C@H](N(C)C)[C@H]2O)[C@](C)(OC)C[C@@H](C)C(=O)[C@H](C)[C@@H]2N(CCCCn3cnc(-c4cccnc4)c3)C(=O)O[C@@]21C`, the outcome in test [2] and in test [4] was inactive. The outcome in test [3] was Active.

As to `CC[C@H]1OC(=O)[C@H](C)C(=O)[C@H](C)[C@@H](O[C@@H]2O[C@H](C)C[C@H](N(C)C)[C@H]2O)[C@](C)(OC)C[C@@H](C)C(=O)[C@H](C)[C@@H]2N(NCCCc3ccnc4ccccc34)C(=O)O[C@@]21C`, the result in test [2] and in [4] was inactive. Besides, the result in test [5] and in [3] was Active.

With `CC[C@H]1OC(=O)[C@H](C)C(=O)[C@H](C)[C@@H](O[C@@H]2O[C@H](C)C[C@H](N(C)C)[C@H]2O)[C@](C)(OC)C[C@@H](C)C(=O)[C@H](C)[C@@H]2N(NCCc3ccccc3)C(=O)O[C@@]21C`, the result in test [2] and in [4] was inactive.

In the case of `CC[C@H]1OC(=O)[C@H](C)[C@@H](O[C@H]2C[C@@](C)(OC)[C@@H](O)[C@H](C)O2)[C@H](C)[C@@H](O[C@@H]2O[C@H](C)C[C@H](N(C)C)[C@H]2O)[C@](C)(O)C[C@@H](C)/C(=N\OCOCCOC)[C@H](C)[C@@H](O)[C@]1(C)O`, the result in test [2] and in test [4] was inactive.

As for `CC[C@H]1OC(=O)[C@H](C)[C@@H](O[C@H]2C[C@@](C)(OC)[C@@H](O)[C@H](C)O2)[C@H](C)[C@@H](O[C@@H]2O[C@H](C)C[C@H](N(C)C)[C@H]2O)[C@](C)(O)C[C@@H](C)CN(C)[C@H](C)[C@@H](O)[C@]1(C)O`, the outcome in test [2], in test [6] and in test [4] was inactive. Moreover, the result in test [7] was Active.

In the case of `CC[C@H]1OC(=O)[C@H](C)[C@@H](O[C@H]2C[C@@](C)(OC)[C@@H](O)[C@H](C)O2)[C@H](C)[C@@H](O[C@@H]2O[C@H](C)C[C@H](N(C)C)[C@H]2O)[C@](C)(OC)C[C@@H](C)C(=O)[C@H](C)[C@@H](O)[C@]1(C)O`, the outcome in test [2] and in test [4] was inactive. The result in test [8] was Active.

On to `CC[C@H]1OC(=O)[C@H](C)[C@@H](O[C@H]2C[C@@](C)(OC)[C@@H](O)[C@H](C)O2)[C@H](C)[C@@H](O[C@@H]2O[C@H](C)C[C@H](N(C)C)[C@H]2O)[C@](C)(OC)C[C@@H](C)C(=O)[C@H](C)[C@@H]2N(CCCCn3cnc(-c4cccnc4)c3)C(=O)O[C@@]21C`, for which the result in test [1] and in test [7] was Active.

For `CC[C@H]1OC(=O)[C@H](C)[C@@H](O[C@H]2C[C@@](C)(OC)[C@@H](O)[C@H](C)O2)[C@H](C)[C@@H](O[C@@H]2O[C@H](C)C[C@H](N(C)C)[C@H]2O)[C@](C)(OC)C[C@@H](C)C(=O)[C@H](C)[C@@H]2N(NCCCc3ccnc4ccccc34)C(=O)O[C@@]21C`, the outcome in test [2] and in test [4] was inactive. For the same compound, the outcome in test [1] was Active.

Regarding `CO[C@@H]1[C@@H](O[C@@H]2O[C@H](C)[C@@H](O[C@H]3C[C@@](C)(O)[C@@H](OC(=O)CC(C)C)[C@H](C)O3)[C@H](N(C)C)[C@H]2O)[C@@H](CC=O)C[C@@H](C)[C@@H](O)/C=C/C=C/C[C@@H](C)OC(=O)C[C@H]1OC(C)=O`, the result in [1] was inactive.

In general, MIC refers to the least concentration at which growth counts as inhibited. Low readings indicate greater potency, high ones weaker potency. Take `CC[C@H]1OC(=O)[C@H](C)C(=O)[C@H](C)[C@@H](O[C@@H]2O[C@H](C)C[C@H](N(C)C)[C@H]2O)[C@](C)(OCC=Cc2cnc3ccccc3c2)C[C@@H](C)C(=O)[C@H](C)[C@H]2NC(=O)O[C@@]21C` [CETHROMYCIN]: the result in test [2] and in test [4] was inactive. Moreover, the result in test [3] and in [7] was Active. For the same compound, the MIC in test [9] and in test [10] was 1.5 mg/L (≈ 1.96 µM) each time.

`O=C(N[C@H](CO)[C@H](O)c1ccc([N+](=O)[O-])cc1)C(Cl)Cl` [CHLORAMPHENICOL]: the MIC in test [9] and in test [10] was 2 mg/L (≈ 6.19 µM) in each case.

For `CC[C@H]1OC(=O)[C@H](C)[C@@H](O[C@H]2C[C@@](C)(OC)[C@@H](O)[C@H](C)O2)[C@H](C)[C@@H](O[C@@H]2O[C@H](C)C[C@H](N(C)C)[C@H]2O)[C@](C)(O)C[C@@H](C)C(=O)[C@H](C)[C@@H](O)[C@]1(C)O` [ERYTHROMYCIN], the result in test [2] and in test [4] was inactive. In addition, the outcome in [11], in test [12] and in [7] was Active. The MIC stood at 3 mg/L (≈ 4.09 µM) in test [9] and 25 mg/L (≈ 34.1 µM) in test [10].

With `CC[C@H]1OC(=O)[C@H](C)C(=O)[C@H](C)[C@@H](O[C@@H]2O[C@H](C)C[C@H](N(C)C)[C@H]2O)[C@](C)(OC)C[C@@H](C)C(=O)[C@H](C)[C@H]2N(CCCCn3cnc(-c4cccnc4)c3)C(=O)O[C@]12C` [TELITHROMYCIN], the outcome in [2], in test [4] and in test [14] was inactive. In addition, the outcome in test [5], in test [3], in [13] and in test [7] was Active. Besides, the MIC in [9] and in test [10] was 1.5 mg/L (≈ 1.85 µM) throughout.

Take SPIRAMYCIN: the outcome in test [1] was inactive.
